These are literature values, as cited in patent US20240115695A1, “Method of Obtaining Betulin as an Adjuvant in a Vaccine Against Coronavirus SARS-COV-2” (BETUVAKS LIMITED LIABILITY COMPANY, priority 2020, published 2024).

For data set [1] the following is noted: in vivo.

A word on the LD50: it is the dose expected to kill half of the subjects tested. Take `C1CCOC1` [THF, tetrahydrofuran]: in data set [1], the LD50 was 2300 mg/kg and the MPC is reported as 100 mg/m^3.

Consider `C=C(C)[C@@H]1CC[C@]2(CO)CC[C@]3(C)[C@H](CC[C@@H]4[C@@]5(C)CC[C@H](O)C(C)(C)[C@@H]5CC[C@]43C)[C@@H]12` [betulin], for which the solubility of betulin result was “less than 1 μg/mL”.
